Biological target: MYC:TRRAP interaction (Homo sapiens, UniProt P01106+Q9Y4A5)
Experiment: MYC:TRRAP in-cell luminescence complementation assay (NanoBiT; SmB-MYC 1-190 and TRRAP 2033-2283-LgB in HeLa cells)
Assay type: cell-based
Settings: Table 1; 46 primary hits at 10 uM; HeLa cells; triplicate measurements
Description: HeLa cells plated on Greiner 96-well TC-rated white plates with clear bottoms were used for the following measurements. Reverse transfections were carried out using LipoD293™ before cells were plated. A bluescript KS' plasmid (Addgene) was used as carrier DNA for transfections, and a pcDNA3.1 EGFP plasmid (ThermoFisher) was used as a fluorescence reporter. White light-reflecting film (USA Scientific) was used to cover the bottom of the plates for luminescence measurements. Black light-absorbing film was used to cover the top of the plates for fluorescence measurements. All measurements were taken on a SpectraMax i3 instrument (Molecular Devices).
Transfections were carried out with increasing DNA amounts (1-100 ng per well) of a CMV-driven LgB plasmid and SmB in excess or vice-versa. Background luminesce for the usable range and the amount of DNA needed for vast excess of LgB or SmB were noted. Next, complementation with vast excess either LgB or SmB was used to determine the expression of each of the indicated MYC and TRRAP constructs for a range of DNA amounts per well: 10-100 ng. An optimal ratio of DNA to equalize the expression of each MYC and TRRAP pair was calculated. Then, signal-to-noise ratios were calculated for the indicated MYC and TRRAP pairs, and the pair with the highest ratio was chosen. Finally, the chosen pair was used to determine the optimal DNA transfection mixture. It was determined to be 6.7 ng of a plasmid with a MYC construct, 60 ng of a plasmid with a TRRAP construct and 33.3 ng of the pcDNA 3.1 EGFP plasmid, for each well in a 96-well plate. Unless otherwise indicated, these were the ratios of DNA transfected for this type of assay.
HeLa cells were transfected as above using LipoD293™ with a mixture of SmB-MYC 1-190, TRRAP 2033-2283-LgB, and EGFP in CMV-driven plasmids at the same optimized ratio described above. Two days post-transfection, the media in each well was replaced with fresh media containing each compound from the NCI's sets at 25 μM. Cells were incubated for 2 h with each compound, and luminescence and fluorescence measurements were recorded for each well. Changes in luminescence were normalized to fluorescence. The following pre-plated compound sets were obtained from the NCI/DTP chemical repository and used for this screen:
These chemical sets were used to discover novel small-molecule inhibitors of the MYC:TRRAP complex. SmB-MYC 1-190, TRRAP 2033-2283-LgB, and EGFP were transfected into HeLa cells. Two days post-transfection, compounds were added to the media at 25 μM and cells were incubated for 2h. Luminescence and fluorescence were recorded for each well containing one of the compounds. Changes in luminescence measurements were normalized to fluorescence measurements.
Afterwards, only molecules that reduced luminescence levels to <50% RLU were considered. This set of 46 compounds were incubated at 10 μM with vector-expressing cells. Luminescence complementation was measured and repeated in triplicate measurements. In addition, HeLa cells expressing LgB and SmB alone were incubated with the same compounds to rule out potentially artificial results due to inhibition of luciferase or its complementation. Molecules that induces any significant reduction in luminescence (<0.6) during this control assay were not considered further. Of 2947 molecules, 17 were chosen for further testing and ordered from the NCI/DTP Open Chemical Repository. FIG. 16 describes these chosen compounds.
Using the luminescence assay above as a readout for the MYC:TRRAP interaction, we used a robotic liquid handler to evaluate 2987 additional compounds (25 μM). All primary hits were counter-screened for any activity against the luciferase enzyme itself and for any effects on the expression of the fusion proteins. We set a threshold of 50% inhibition to consider compounds further. Only 17 out of 2987 passed all these criteria (0.6%). […]

Chain of MYC:TRRAP interaction (P01106 16-205): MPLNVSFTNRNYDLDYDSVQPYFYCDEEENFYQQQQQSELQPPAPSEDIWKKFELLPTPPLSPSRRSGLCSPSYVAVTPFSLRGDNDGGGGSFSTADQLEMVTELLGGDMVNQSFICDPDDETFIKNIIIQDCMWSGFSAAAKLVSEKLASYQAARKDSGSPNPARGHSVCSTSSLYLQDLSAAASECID
Chain of MYC:TRRAP interaction (Q9Y4A5 2051-2301): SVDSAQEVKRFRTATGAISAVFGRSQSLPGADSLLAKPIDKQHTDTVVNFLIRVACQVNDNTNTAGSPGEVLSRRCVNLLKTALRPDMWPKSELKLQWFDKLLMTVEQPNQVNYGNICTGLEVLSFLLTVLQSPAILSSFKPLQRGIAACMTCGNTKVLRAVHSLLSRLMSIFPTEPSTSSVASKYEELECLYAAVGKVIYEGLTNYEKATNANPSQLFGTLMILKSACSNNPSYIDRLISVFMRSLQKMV

SMILES | % Inhibition 10 uM [%]
CC1Oc2cc3c(-c4c(O)cc(O)c5c(O)c6c(cc45)OC(C)C(C)C6=O)c(O)cc(O)c3c(O)c2C(=O)C1C (centres unmarked) [Compound 38] | 76.03
Cc1cc(N(C)C)ccc1/N=N/c1ccc2ncccc2c1 [Compound 12, N,N,3-trimethyl-4-(quinolin-6-yldiazenyl)aniline] | 58.86
CC1(C)CCC2=C(O1)c1ccccc1C(=O)C2=O [Compound 40, 2,2-dimethyl-3,4-dihydrobenzo[h] chromene-5,6-dione] | 76.06
CC1=C(C)C(=O)O[C@H]([C@](C)(O)[C@]2(O)CC[C@@]3(O)[C@@H]4C[C@H]5O[C@]56CC=CC(=O)[C@]6(C)[C@H]4CC[C@]23C)C1 [Compound 33, (1S,2R,7S,9R,11R, 12R,15S,16S)-15-[(1S)-1-[(2S)-4,5-dimethyl-6-oxo-2,3-dihydropyran-2-yl]-1-hydroxyethyl]-12,15-dihydroxy-2,16-dimethyl-8-oxapentacyclo [9.7.0.02, 7.07,9.012,16] octadec-4-en-3-one] | 29.74
FC(F)(F)c1cccc(-c2nc3nc(Cl)c(Cl)[nH]c-3n2)c1 [Compound 32, 5,6-dichloro-2-[3-(trifluoromethyl)phenyl]-1H-imidazo[4,5-b]pyrazine] | 80.85
COc1c(OC)c2c3c(nccc3c1OC)-c1cc(=O)c(OC)ccc1-2 [Compound 30] | 68.68
COc1c2c(cc3c1C1Oc4c(ccc(O)c4CC=C(C)C)C1CO3)OC(C)(C)C=C2 (centres unmarked) [Compound 45, 21-methoxy-17,17-dimethyl-5-(3-methylbut-2-enyl)-3,12,16-trioxapentacyclo [11.8.0.02,10.04, 9.015,20] henicosa-1(13),4(9),5,7, 14,18, 20-heptaen-6-ol] | 85.82
CC(C)(C)c1cc(C=C(C#N)C#N)cc(C(C)(C)C)c1O [Compound 25, 2-[(3,5-ditert-butyl-4-hydroxyphenyl)methylidene] propanedinitrile] | 42.52
COC(=O)c1cc2c(n1S(=O)(=O)c1ccc(C)cc1)C(=O)C(=O)c1[nH]cc(C(=O)OCc3ccccc3)c1-2 [Compound 21, 8-O-benzyl 2-O-methyl 3-(4-methylphenyl) sulfonyl-4,5-dioxo-6H-pyrrolo[3,2-e]indole-2,8-dicarboxylate] | 39.88
CN(C)c1ccc2c(c1)Sc1cc(N(C)C)ccc1N2C(=O)c1ccccc1 [Compound 44, [3,7-bis(dimethylamino)phenothiazin-10-yl]-phenylmethanone] | 93.68
COC(=O)c1c[nH]c2c1-c1cc(C(=O)OCc3ccccc3)n(S(=O)(=O)c3ccc(C)cc3)c1C(=O)C2=O [Compound 7, 2-O-benzyl 8-O-methyl 3-(4-methylphenyl) sulfonyl-4,5-dioxo-6H-pyrrolo[3,2-e]indole-2,8-dicarboxylate] | 16.02
C/N=c1\sc2c(n1C)C(=O)c1ccccc1C2=O [Compound 13, 3-methyl-2-methyliminobenzo [f][1,3] benzothiazole-4,9-dione] | 68.66
Nc1ccc(/N=N/c2ccccc2)c2ccccc12 [Compound 3, 4-phenyldiazenylnaph-thalen-1-amine] | 22.41
N[C@@H](Cc1ccc2oc3cc(=O)c4ccccc4c-3nc2c1)C(=O)O.O=[N+]([O-])O [Compound 36, (2S)-2-amino-3-(5-oxobenzo[a]pheno-xazin-10-yl)propanoic acid; nitric acid] | 73.39
Nc1ccc(N=Nc2ccccc2Cl)c(N)n1 [Compound 1, 3-[(2-chlorophenyl)diazenyl] pyridine-2,6-diamine] | 14.38
N=c1ccc(/N=N/c2ccc(O)cc2)c(N)[nH]1 [Compound 4, 4-[(2,6-diaminopyridin-3-yl)diazenyl]phenol] | 30.35

Same assay, conditions: Table 1; 46 primary hits at 10 uM; HeLa cells; triplicate measurements; 10 µM

SMILES | % Inhibition 10 uM [%]
COC(=O)c1nc(-c2ccc3c(n2)C(=O)C(N)=C(OC)C3=O)c(N)c(-c2ccc(OC)c(OC)c2O)c1C [Compound 23, methyl 5-amino-6-(7-amino-6-methoxy-5,8-dioxoquinolin-2-yl)-4-(2-hydroxy-3,4-dimethoxyphenyl)-3-methylpyridine-2-carboxylate] | 50.17

Same assay, conditions: Table 1; 46 primary hits at 10 uM; HeLa cells; triplicate measurements; listed as 29, 10 µM

SMILES | % Inhibition 10 uM [%]
COC(=O)c1nc(-c2ccc3c(n2)C(=O)C(N)=C(OC)C3=O)c(N)c(-c2ccc(OC)c(OC)c2O)c1C [Compound 23, methyl 5-amino-6-(7-amino-6-methoxy-5,8-dioxoquinolin-2-yl)-4-(2-hydroxy-3,4-dimethoxyphenyl)-3-methylpyridine-2-carboxylate] | 60.1

Same assay, conditions: Table 2; compounds with >80% similarity to compound 10 (NSC657456); 10 uM

SMILES | % Inhibition 10 uM [%]
N=C(S)/N=N/c1c(O)[nH]c2ccccc12 [Compound 101, (2-hydroxy-1H-indol-3-yl)iminothiourea] | 104.5
C=CC/N=C(S)/N=N/c1c(O)[nH]c2ccccc12 [Compound 1018] | 77.04
N=C(/N=N/c1c(O)[nH]c2ccccc12)C(=N)/N=N/c1c(O)[nH]c2ccccc12 [Compound 103, 1-N,2-N-bis[(2-hydroxy-1H-indol-3-yl)imino]ethane-diimidamide] | 88.83
NC(=O)/N=N/c1c(O)[nH]c2ccccc12 [Compound 107, (2-hydroxy-1H-indol-3-yl)iminourea] | 112.6
CCOC(=O)/N=N/c1c(O)[nH]c2ccccc12 [Compound 1014, ethyl N-[(2-hydroxy-1H-indol-3-yl)imino] carbamate] | 107.3
CCOC(=O)Cc1csc(/N=N/c2c(O)[nH]c3ccccc23)n1 [Compound 1026, ethyl 2-[2-[(2-hydroxy-1H-indol-3-yl)diazenyl]-1,3-thiazol-4-yl] acetate] | 59.51
N=C(/N=N/c1c(O)[nH]c2ccccc12)N[N+](=O)[O-] [Compound 102, 1-[(2-hydroxy-1H-indol-3-yl)imino]-3-nitroguanidine] | 100.4
Cc1sc(/N=N/c2c(O)[nH]c3ccccc23)nc1-c1ccccc1 [Compound 1027, 3-[(5-methyl-4-phenyl-1,3-thiazol-2-yl)diazenyl]-1H-indol-2-ol] | 50.66
O=[N+]([O-])c1ccc(-c2csc(N=Nc3c(O)[nH]c4ccccc34)n2)cc1 [Compound 1023, 3-[[4-(4-nitrophenyl)-1,3-thiazol-2-yl]diazenyl]-1H-indol-2-ol] | 47.93
NC(=O)/N=N/c1c(O)n(O)c2ccccc12 [Compound 106, (1,2-dihydroxyindol-3-yl)iminourea] | 127.3
Oc1[nH]c2ccccc2c1/N=N/c1ccccc1 [Compound 1012, 3-phenyldiazenyl-1H-indol-2-ol] | 66.53
Oc1[nH]c2ccccc2c1/N=N/c1ccccc1Cl [Compound 1011, 3-[(2-chlorophenyl)diazenyl]-1H-indol-2-ol] | 64.75
Cc1cccc(/N=C(S)/N=N/c2c(O)[nH]c3ccccc23)c1 [Compound 1035, 1-[(2-hydroxy-1H-indol-3-yl)imino]-3-(3-methylphenyl) thiourea] | 82.12
O=C1CSC(/N=N/c2c(O)[nH]c3ccccc23)=N1 [Compound 1016, 2-[(2-hydroxy-1H-indol-3-yl)diazenyl]-1,3-thiazol-4-one] | 104.5
N#CC(=N)/C(C#N)=N/c1c(O)[nH]c2ccccc12 [Compound 1017, N′-(2-hydroxy-1H-indol-3-yl)ethane-diimidoyl dicyanide] | 89.13
N=C(S)/N=N/c1c(O)[nH]c2cccc(C(F)(F)F)c12 [Compound 1015, [2-hydroxy-4-(trifluoro-methyl)-1H-indol-3-yl]iminothiourea] | 82.44
O=C(/N=N/c1c(O)[nH]c2ccccc12)C(F)(F)F [Compound 1019, 2,2,2-trifluoro-N-[(2-hydroxy-1H-indol-3-yl)imino] acetamide] | 82.34

Source: patent publication US20260216144A1, “TARGETING MB2 OF THE MYC ONCOGENE AND ITS INTERACTION WITH TRRAP IN CANCER” (priority 2019, published 2026)
